Patent US20180244611A1, “Modulators of the Cystic Fibrosis Transmembrane Conductance Regulator Protein and Methods of Use” (AbbVie S.à.r.l., priority 2017, published 2018)

Columns and labels:
[1] = molecular target: T1, F508delCFTR (Homo sapiens, UniProt P13569, DEL508-508); assay: Cell Surface Expression-Horse Radish Peroxidase (CSE-HRP) assay, test compound without co-corrector; type: cell-based; settings: for Emax: maximum at any tested concentration, without co-corrector; for EC50: test compound without co-corrector;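 on Emax: percent of on-plate 2 µM positive control corrector response over DMSO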
T1 construct: expressed in transfected cells; host or cells: CFBE41o- human lung-derived epithelial cells (CFBE41o-F508delCFTR-HRP), doxycycline-inducible
T1 sequence (P13569 with tags, fused parts or gaps DEL508-508): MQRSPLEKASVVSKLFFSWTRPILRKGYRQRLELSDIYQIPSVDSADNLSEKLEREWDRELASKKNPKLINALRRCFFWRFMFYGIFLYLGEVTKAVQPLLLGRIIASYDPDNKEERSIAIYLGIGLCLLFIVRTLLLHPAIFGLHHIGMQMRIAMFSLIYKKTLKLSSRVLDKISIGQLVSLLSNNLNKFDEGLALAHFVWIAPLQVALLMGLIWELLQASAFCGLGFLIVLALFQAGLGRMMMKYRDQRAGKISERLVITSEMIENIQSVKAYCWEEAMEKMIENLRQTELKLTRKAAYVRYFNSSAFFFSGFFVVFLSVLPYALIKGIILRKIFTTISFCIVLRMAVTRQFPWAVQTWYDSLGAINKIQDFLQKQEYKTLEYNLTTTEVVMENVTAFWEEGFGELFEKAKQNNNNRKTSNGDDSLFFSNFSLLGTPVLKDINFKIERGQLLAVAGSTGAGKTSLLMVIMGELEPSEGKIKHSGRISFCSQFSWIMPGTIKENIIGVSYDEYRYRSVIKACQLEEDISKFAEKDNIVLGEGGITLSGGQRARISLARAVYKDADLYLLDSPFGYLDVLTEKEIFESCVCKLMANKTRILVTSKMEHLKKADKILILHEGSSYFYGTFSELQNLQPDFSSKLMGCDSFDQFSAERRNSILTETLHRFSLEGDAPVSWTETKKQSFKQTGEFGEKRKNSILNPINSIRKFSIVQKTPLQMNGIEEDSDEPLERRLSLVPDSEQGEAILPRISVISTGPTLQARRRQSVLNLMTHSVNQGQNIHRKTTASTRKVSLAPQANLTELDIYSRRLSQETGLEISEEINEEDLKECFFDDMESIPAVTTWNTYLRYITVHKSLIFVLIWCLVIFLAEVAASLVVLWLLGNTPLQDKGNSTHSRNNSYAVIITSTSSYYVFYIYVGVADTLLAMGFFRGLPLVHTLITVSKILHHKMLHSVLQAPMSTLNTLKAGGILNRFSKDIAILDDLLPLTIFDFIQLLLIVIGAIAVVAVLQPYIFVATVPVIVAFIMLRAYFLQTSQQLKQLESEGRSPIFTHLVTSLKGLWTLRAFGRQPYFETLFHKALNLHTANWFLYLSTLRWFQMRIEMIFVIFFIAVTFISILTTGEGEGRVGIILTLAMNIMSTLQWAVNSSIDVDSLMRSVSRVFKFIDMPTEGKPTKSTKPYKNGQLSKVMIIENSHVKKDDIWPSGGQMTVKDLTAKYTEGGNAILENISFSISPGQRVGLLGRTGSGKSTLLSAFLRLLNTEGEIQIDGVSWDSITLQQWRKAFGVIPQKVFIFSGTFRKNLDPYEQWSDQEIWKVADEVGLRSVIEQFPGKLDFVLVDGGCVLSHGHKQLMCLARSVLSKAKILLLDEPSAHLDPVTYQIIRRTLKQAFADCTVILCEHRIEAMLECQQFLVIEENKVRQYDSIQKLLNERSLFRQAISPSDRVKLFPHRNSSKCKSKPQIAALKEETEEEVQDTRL
Outline: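 Compound without co-corrector was tested at eight 3-fold concentrations, top 20 μM, for 18-24 h at 33° C on doxycycline-induced (0.5 μg/mL, 72 h) CFBE41o- F508delCFTR-HRP cells. After DPBS washes, luminol luminescence gave % activity relative to on-plate positive control minus DMSO; EC50 came from triplicate-plate sigmoidal fitting.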

[2] = molecular target: T1, F508delCFTR; assay: Cell Surface Expression-Horse Radish Peroxidase (CSE-HRP) assay, test compound with co-corrector; type: cell-based; settings: for Maximum % activity (with co-corrector): maximum at any tested concentration;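 on Maximum % activity (with co-corrector): percent of 2 µM positive control corrector over DMSO; co-corrector is that same compound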
Outline: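 Surface-expression read-out: luminol luminescence from an HRP tag in the fourth exofacial loop of F508delCFTR, in doxycycline-induced (0.5 μg/mL, 72 h) CFBE41o- cells. Compound plus 2 μM co-corrector added for 18-24 h at 33° C., 8-point 3-fold series up to 20 μM. EC50 from a sigmoidal fit with variable Hill slope, normalised to positive control, triplicate plates.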

[3] = normalized to positive control, with 2 μM co-corrector
[4] = normalized to on-plate positive control
[5] = CSE-HRP assay, test compound with 2 μM co-corrector
[6] = normalized to on-plate positive control, with 2 μM co-corrector

Row | SMILES | Emax ([1]; normalized to positive control) [%] | EC50 [1] [µM] | Maximum % activity (with co-corrector) [2, 3] | EC50 ([2]; with 2 μM co-corrector) [µM] | EC50 ([1]; CSE-HRP assay) [µM] | Emax [1, 4] [%] | EC50 [2, 5] [µM] | Maximum % activity (with co-corrector) [2, 6]
1 | COc1ccc(C2CCC2)c2c1[C@@H](C(=O)NS(=O)(=O)c1cccc3c1CCCN3)C2 (single isomer, unassigned) [Example I-145] | ≥ 150 | 3 to 10 | +++ (≥350) | 3 to 10 | – | – | – | –
2 | COc1ccc(Cl)c2c1C(C(=O)NS(=O)(=O)c1cccc3ccccc13)CC2 (centres unmarked) [Example I-59, 4-chloro-7-methoxy-N-(naphthalene-1-sulfonyl)-2,3-dihydro-1H-indene-1-carboxamide] | ≥ 150 | 3 to 10 | +++ (≥350) | < 3 | – | – | – | –
3 | COc1ccc(Cl)c2c1CC[C@@H]2C(=O)NS(=O)(=O)c1cccc2ccccc12 (single isomer, unassigned) [Example I-87] | 50 to 150 | 3 to 10 | +++ (≥350) | 3 to 10 | – | – | – | –
4 | Cc1ccccc1S(=O)(=O)NC(=O)C1CCc2c(-c3cn[nH]c3)cccc21 (centres unmarked) [III-97] | – | – | – | – | ≥ 10 | < 50 | ≥ 10 | + (<150)
5 | CCC1(C(=O)NS(=O)(=O)c2cccc3c2CCCC3)CCc2c(Cl)cccc21 (centres unmarked) [II-79] | 50 to 150 | < 3 | ++ (≥150 and <350) | < 3 | – | – | – | –
6 | O=C(NS(=O)(=O)c1cccc2ccccc12)C1(Cc2ccccc2)CCc2c(Cl)cccc21 (centres unmarked) [Example I-5, 1-benzyl-4-chloro-N-(naphthalene-1-sulfonyl)-2,3-dihydro-1H-indene-1-carboxamide] | ≥ 150 | < 3 | +++ (≥350) | < 3 | – | – | – | –
7 | COc1cccc(COc2ccc(Br)c3c2CCCC3C(=O)NS(=O)(=O)c2cccc3ccccc23)c1 (centres unmarked) [II-85] | < 50 | 3 to 10 | ++ (≥150 and <350) | 3 to 10 | – | – | – | –
8 | COc1ccc(C(F)(F)F)c2c1[C@H](C(=O)NS(=O)(=O)c1cccc3nc(C)ccc13)CC2 [Example I-118, (1R)-7-methoxy-N-(2-methylquinoline-5-sulfonyl)-4-(trifluoromethyl)-2,3-dihydro-1H-indene-1-carboxamide] | ≥ 150 | < 3 | +++ (≥350) | < 3 | – | – | – | –
9 | COc1ccc(C2CCC2)c2c1CCC[C@@H]2C(=O)NS(=O)(=O)c1cccc2ccccc12 [Example I-60, (1S)-8-cyclobutyl-5-methoxy-N-(naphthalene-1-sulfonyl)-1,2,3,4-tetrahydronaphthalene-1-carboxamide] | ≥ 150 | < 3 | +++ (≥350) | < 3 | – | – | – | –
10 | CCC1(C(=O)NS(=O)(=O)c2cccc(N3CCCCC3)c2C)CCc2c(Cl)cccc21 (centres unmarked) [II-125] | 50 to 150 | 3 to 10 | +++ (≥350) | 3 to 10 | – | – | – | –
11 | Cc1ccc2c(c1)CCC2(C)C(=O)NS(=O)(=O)c1cccc(N)n1 (centres unmarked) [III-108] | – | – | – | – | 3 to 10 | 50 to 150 | 3 to 10 | ++ (≥150 and <350)
12 | CCC1(C(=O)NS(=O)(=O)c2cccc(C#N)c2)CCc2c(Cl)cccc21 (centres unmarked) [III-144] | – | – | – | – | ≥ 10 | < 50 | 3 to 10 | ++ (≥150 and <350)
13 | COc1ccc(Br)c2c1C(C(=O)NS(=O)(=O)c1cccc3ncccc13)CC2 (centres unmarked) [Example I-44, 4-bromo-7-methoxy-N-(quinoline-5-sulfonyl)-2,3-dihydro-1H-indene-1-carboxamide] | ≥ 150 | < 3 | +++ (≥350) | < 3 | – | – | – | –
14 | CCC1(C(=O)NS(=O)(=O)c2ccc(-c3ccccc3)cc2)CCc2c(Cl)cccc21 (centres unmarked) [III-129] | – | – | – | – | ≥ 10 | < 50 | 3 to 10 | ++ (≥150 and <350)
15 | COc1cccc2c1CCC2C(=O)NS(=O)(=O)c1ccc(Cl)cc1 (centres unmarked) [III-32] | < 50 | ≥ 10 | + (<150) | ≥ 10 | – | – | – | –
16 | CCC1(C(=O)NS(=O)(=O)c2cccc(Cl)c2C(=O)OC)CCc2c(Cl)cccc21 (centres unmarked) [III-149] | – | – | – | – | ≥ 10 | < 50 | < 3 | + (<150)
17 | COc1cccc2c1CCC2C(=O)NS(=O)(=O)c1ccccc1[N+](=O)[O-] (centres unmarked) [II-31] | < 50 | 3 to 10 | ++ (≥150 and <350) | 3 to 10 | – | – | – | –
18 | O=C(NS(=O)(=O)c1cccc2ccccc12)[C@@H]1CCCc2cccc(Cl)c21 [Example I-11, (1R)-8-chloro-N-(naphthalene-1-sulfonyl)-1,2,3,4-tetrahydronaphthalene-1-carboxamide] | ≥ 150 | < 3 | +++ (≥350) | < 3 | – | – | – | –
19 | CCC1(C(=O)NS(=O)(=O)c2cccc(Cl)c2F)CCc2c(Cl)cccc21 (centres unmarked) [II-106] | < 50 | ≥ 10 | ++ (≥150 and <350) | < 3 | – | – | – | –
20 | COc1ccc(OC)c2c1CC[C@@H]2C(=O)NS(=O)(=O)c1cccc2ncccc12 [Example I-91, (1S)-4,7-dimethoxy-N-(quinoline-5-sulfonyl)-2,3-dihydro-1H-indene-1-carboxamide] | 50 to 150 | 3 to 10 | +++ (≥350) | 3 to 10 | – | – | – | –
21 | COc1ccc(-c2cncnc2)c2c1C(C(=O)NS(=O)(=O)c1cccc3ncccc13)CC2 (centres unmarked) [III-168] | – | – | – | – | 3 to 10 | 50 to 150 | 3 to 10 | +++ (≥350)
22 | CCC1(C(=O)NS(=O)(=O)c2ccccc2C#N)CCc2c(Cl)cccc21 (centres unmarked) [III-120] | – | – | – | – | ≥ 10 | < 50 | ≥ 10 | + (<150)
23 | COc1ncc(Br)c2c1C(C(=O)NS(=O)(=O)c1cccc3ccccc13)CC2 (centres unmarked) [Example I-110, 4-bromo-1-methoxy-N-(naphthalene-1-sulfonyl)-6,7-dihydro-5H-cyclopenta[c]pyridine-7-carboxamide] | ≥ 150 | 3 to 10 | +++ (≥350) | 3 to 10 | – | – | – | –
24 | COc1ccc2c(c1OC)CCCC2C(=O)NS(=O)(=O)c1cccc2ccccc12 (centres unmarked) [II-51] | 50 to 150 | 3 to 10 | +++ (≥350) | 3 to 10 | – | – | – | –
25 | COc1cccc2c1CCC[C@H]2C(=O)NS(=O)(=O)c1cccc(N)n1 [III-109] | – | – | – | – | ≥ 10 | < 50 | ≥ 10 | + (<150)
26 | COc1cccc2c1CCC2C(=O)NS(=O)(=O)c1c(Cl)cccc1Cl (centres unmarked) [III-76] | < 50 | ≥ 10 | + (<150) | ≥ 10 | – | – | – | –
27 | CCOc1ccc(Br)c2c1CCCC2C(=O)NS(=O)(=O)c1cccc2ccccc12 (centres unmarked) [Example I-32, 8-bromo-5-ethoxy-N-(naphthalene-1-sulfonyl)-1,2,3,4-tetrahydronaphthalene-1-carboxamide] | ≥ 150 | < 3 | +++ (≥350) | < 3 | – | – | – | –
28 | CCC1(C(=O)NS(=O)(=O)c2ccc(F)c3ccccc23)CCc2c(Cl)cccc21 (centres unmarked) [II-77] | < 50 | < 3 | ++ (≥150 and <350) | < 3 | – | – | – | –
29 | COc1cccc2c1CCC2C(=O)NS(=O)(=O)c1ccc(Cl)c([N+](=O)[O-])c1 (centres unmarked) [III-28] | < 50 | ≥ 10 | + (<150) | ≥ 10 | – | – | – | –
